pEC50, pIC50: −log10 of the molar value. Where two headings read alike, the source gives them in different places.
How the values were obtained:
[1] = biological target: T1, HCV NS5B (Hepatitis C virus genotype 1b, UniProt Q9WMX2); experiment: HCV NS5B RdRp enzyme assay (standard / modified); assay type: biochemical
T1 construct: The protein was expressed with an 18 amino acid C-terminal truncation to enhance the solubility; made in house; host or cells: E. coli BL21 (DE3)
Outline: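 NS5B genotype 1b, 18-aa C-terminal truncation, E. coli-expressed; polyA template with biotinylated oligo-dT12 primer, 3H-UTP 0.29 μM, 30° C, SPA read-out in 20 mM Hepes pH 7.5, 2% DMSO. Standard: 28 nM enzyme, 6 nM template, 180 nM primer, 60 min; modified: 14 nM enzyme, 0.2 nM template, 20 nM bead-precaptured primer, 4 h. IC50 from seven concentrations.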

[2] = tested on: HCV replicon cells; experiment: HCV replicon FRET / luciferase assay; assay type: cell-based; conditions: Hepatitis C virus
Outline: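 Trypsinized replicon cells were seeded with compound titrations and incubated at 37 °C for various times. Alamar blue was added to gauge toxicity. Plates were then rinsed and either lysed with FRET peptide reagent for kinetic fluorescence reading or switched to phenol red-free DMEM for luciferase measurement.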

[3] = HCV RdRp genotype 1b enzyme, read-out: IC50
[4] = HCV replicon cells, FRET or luciferase readout, read-out: EC50

T1 sequence (Q9WMX2 2420-2992): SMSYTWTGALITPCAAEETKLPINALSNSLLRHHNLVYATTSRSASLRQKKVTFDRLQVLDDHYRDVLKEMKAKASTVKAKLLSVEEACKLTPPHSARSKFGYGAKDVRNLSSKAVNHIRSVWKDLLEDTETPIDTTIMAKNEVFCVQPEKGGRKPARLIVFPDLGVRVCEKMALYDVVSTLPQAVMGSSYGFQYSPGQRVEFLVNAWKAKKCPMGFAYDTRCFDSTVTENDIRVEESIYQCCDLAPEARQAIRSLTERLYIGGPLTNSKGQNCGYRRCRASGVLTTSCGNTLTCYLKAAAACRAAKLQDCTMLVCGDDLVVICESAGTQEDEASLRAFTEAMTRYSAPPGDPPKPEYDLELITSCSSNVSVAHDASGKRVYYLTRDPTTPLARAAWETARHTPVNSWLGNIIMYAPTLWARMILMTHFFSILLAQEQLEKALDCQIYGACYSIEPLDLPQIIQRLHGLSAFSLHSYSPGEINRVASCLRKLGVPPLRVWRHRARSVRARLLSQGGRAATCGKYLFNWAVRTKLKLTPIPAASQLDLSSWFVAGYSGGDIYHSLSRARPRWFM

Structure (SMILES) | pIC50 [1, 3] | pEC50 [2, 4] | pIC50 [1] | pEC50 [2]
COc1ccc2c(c1)C=C(c1c(C(=O)N(CCN(C(C)C)C(C)C)C(C)C)cnn1C)Cn1c-2c(C2CCCCC2)c2ccc(C(=O)NS(=O)(=O)C(C)C)cc21 | 6.30 to 9.00 | 6.30 to 9.00 |  | 
CCn1ncc(C(=O)N2CCN(C)CC2)c1C1=Cc2cc(OC)ccc2-c2c(C3CCCCC3)c3ccc(C(=O)NS(=O)(=O)N4CCCC4)cc3n2C1 | 6.30 to 9.00 | 6.30 to 9.00 |  | 
CCn1nc(C)c(C(=O)N2CC3CCC(C2)N3C)c1C1=Cc2cc(OC)ccc2-c2c(C3CCCCC3)c3ccc(C(=O)NS(=O)(=O)C(C)C)cc3n2C1 |  |  | 6.30 to 9.00 | 6.30 to 9.00
COc1ccc2c(c1)C=C(c1c(C(=O)N3CCCN(C)CC3)cnn1C)Cn1c-2c(C2CCCCC2)c2ccc(C(=O)NS(=O)(=O)N3CCOCC3)cc21 | > 7.70 | 6.30 to 9.00 |  | 
CCn1ncc(C(=O)N2CCOCC2)c1C1=Cc2cc(OC)ccc2-c2c(C3CCCCC3)c3ccc(C(=O)N4CCOCC4)cc3n2C1 | < 6.30 | 6.30 to 9.00 |  | 
CCC(C)S(=O)(=O)NC(=O)c1ccc2c(C3CCCCC3)c3n(c2c1)CC(c1c(C(=O)N2CCOCC2)cnn1C)=Cc1cc(OC)ccc1-3 (stereo not drawn) | 6.30 to 9.00 | 6.30 to 9.00 |  | 
COc1ccc2c(c1)C=C(c1c(C(=O)N(C)C)cnn1C)Cn1c-2c(C2CCCCC2)c2ccc(C(=O)NS(=O)(=O)C(C)C)cc21 | 6.30 to 9.00 | 6.30 to 9.00 |  | 
COc1ccc2c(c1)C=C(c1c(C(=O)O)cnn1C)Cn1c-2c(C2CCCCC2)c2ccc(C(=O)O)cc21 | 6.30 to 9.00 | < 7.40 |  | 
COc1ccc2c(c1)C=C(c1c(C(=O)N3C4COCC3COC4)cnn1C)Cn1c-2c(C2CCCCC2)c2ccc(C(=O)NS(=O)(=O)C3CCC3)cc21 |  |  | 6.30 to 9.00 | 6.30 to 9.00
CCn1ncc(C(=O)N2C3CCCC2COC3)c1C1=Cc2cc(OC)ccc2-c2c(C3CCCCC3)c3ccc(C(=O)NS(=O)(=O)C(C)C)cc3n2C1 |  |  | 6.30 to 9.00 | 6.30 to 9.00
COc1ccc2c(c1)C=C(c1c(C(=O)N3C4COCC3COC4)cnn1C)Cn1c-2c(C2CCCCC2)c2ccc(C(=O)NS(=O)(=O)CC(C)C)cc21 |  |  | 6.30 to 9.00 | 6.30 to 9.00
COc1ccc2c(c1)C=C(c1c(C(=O)N3CCOCC3)ccn1C(C)C)Cn1c-2c(C2CCCCC2)c2ccc(C(=O)NS(=O)(=O)C(C)C)cc21 | 6.30 to 9.00 | 6.30 to 9.00 |  | 
COc1ccc2c(c1)C=C(c1c(C(=O)N3C4CCC3CN(C)C4)cnn1C)Cn1c-2c(C2CCCCC2)c2ccc(C(=O)NS(=O)(=O)N(C)C)cc21 |  |  | 6.30 to 9.00 | 6.30 to 9.00
COc1ccc2c(c1)C=C(c1c(C(=O)N3CC4CCC(C3)N4C)c(C(F)(F)F)nn1C)Cn1c-2c(C2CCCCC2)c2ccc(C(=O)NS(=O)(=O)C(C)C)cc21 |  |  | 6.30 to 9.00 | 6.30 to 9.00
COc1ccc2c(c1)C=C(c1c(C(=O)N(C)C3CCN(C)C3)cnn1C)Cn1c-2c(C2CCCCC2)c2ccc(C(=O)NS(=O)(=O)N3CCOCC3)cc21 (stereo not drawn) | 6.30 to 9.00 | 6.30 to 9.00 |  | 
CCn1nc(C)c(C(=O)N2CC3CCC(C2)O3)c1C1=Cc2cc(OC)ccc2-c2c(C3CCCCC3)c3ccc(C(=O)NS(=O)(=O)C(C)C)cc3n2C1 | 6.30 to 9.00 | 6.30 to 9.00 |  | 
CCN1C[C@@H]2C[C@H]1CN2C(=O)c1cnn(C)c1C1=Cc2cc(OC)ccc2-c2c(C3CCCCC3)c3ccc(C(=O)NS(=O)(=O)C4CCC4)cc3n2C1 | 6.30 to 9.00 | 6.30 to 9.00 |  | 
COc1ccc2c(c1)C=C(c1c(C(=O)N3CCN(C(C)C)CC3)cnn1C)Cn1c-2c(C2CCCCC2)c2ccc(C(=O)NS(=O)(=O)C(C)C)cc21 | 6.30 to 9.00 | 6.30 to 9.00 |  | 
COc1ccc2c(c1)C=C(c1c(C(=O)N3CC4CCC(C3)N4C)cnn1CC(F)(F)F)Cn1c-2c(C2CCCCC2)c2ccc(C(=O)NS(=O)(=O)C(C)C)cc21 |  |  | 6.30 to 9.00 | 6.30 to 9.00
COC[C@@H]1CN(C(=O)c2cnn(C)c2C2=Cc3cc(OC)ccc3-c3c(C4CCCCC4)c4ccc(C(=O)NS(=O)(=O)CC(C)C)cc4n3C2)CCO1 | 6.30 to 9.00 | 6.30 to 9.00 |  | 
COc1ccc2c(c1)C=C(c1c(C(=O)N3[C@@H]4CC[C@H]3C[C@@](C)(O)C4)cnn1C)Cn1c-2c(C2CCCCC2)c2ccc(C(=O)NS(=O)(=O)C(C)C)cc21 |  |  | 6.30 to 9.00 | 6.30 to 9.00
